One compound from patent US5494930A, “Caribenolide I” (priority 1994, dated 1996) can be followed below.

Several values for one entry are separate records, joined by “and”; a condition that tells them apart may be missing. Equal values may be shown once.

The test system of series [1] is human colon carcinoma cell line HCT 116. Nature of the series: In vitro cytotoxicity assay (XTT). The format is cell-based. The protocol: Cytotoxicity for the pure compound was assessed in several HCT116 cell lines by XTT (2,3-bis(2-methoxy-4-nitro-5-sulfophenyl)-5-[(phenylamino)carbonyl]-2H-tetrazolium hydroxide assay (Scudiero, 1988). Cells were seeded at 4000 cells/well in 96 well microtiter plates. 24 hrs later drugs were added and serial diluted. The cells were incubated at 37° C. for 72 hrs at which time the tetrazolium dye, XTT, was added. A dehydrogenase enzyme in live cells reduces the XTT to a form that absorbs light at 450 nm and which can be quantitated spectrophotometrically. The greater the absorbance the greater the number of live cells. The results are expressed as an IC50 which is the drug concentration required to inhibit cell proliferation (i.e. absorbance at 450 nm) to 50% of that of untreated control cells.
(Formazan colour is commonly taken as a measure of viable cells.)

Series [2] relates to P388 mouse leukemia. The experiment in a line: In vivo antitumor activity, i.p. implanted P388 mouse leukemia. The procedure:
(§1) For in vivo evaluation of antitumor activity 1×10^6 P388 mouse leukemia cells were implanted in the intraperitoneal (i.p.) cavity or injected intravenously (i.v.) into (BALB/c ×DBA/2)F1 (CDF1) or (C57/BL6×DBA/2)F1 (BDF1) mice (Roseet al., 1983). Compound (1) was dissolved in DMSO and diluted with saline to the desired concentrations. Injection of Compound (1) was by the i.p. or i.v. route beginning on the first day after tumor implantation and consecutively every day for five treatments (qldX5:1). Increases in lifespan were reflected by the median survival time of treated (T) versus control (C) groups for which a % T/C was calculated. When antitumor activity was evaluated in M109 mouse lung .tumors, 0.2 ml of a 2.0% brei was implanted subcutaneously (s.c.) in CDF1 mice (Rose, 1981). The treatment schedule was one injection per day for days 4-8 after tumor implantation. Results are expressed as % T/C. Tumor growth inhibition was determined by calculating the relative median times for T and C mice to reach a 1 g size. Tumor weights were interchangeable with tumor size on the basis of 1 mm^3 =1 mg. The activity criterion for tumor growth inhibition (T-C) was approximately equal to a T-C of 4 days. Depending on the tumor volume doubling time for the M109 tumors in control mice, this amount of delay in tumor growth is consistent with about one log of cell kill. For both P388 and M109 tumor models, a T/C of […] was considered an active result.
(§2) Initial testing was done versus i.p. implanted P388 mouse leukemia. An optimal dose of 0.03 mg/kg/inj given i.p. produced a 50% increase in lifespan (150% T/C). In addition, Compound (1) was evaluated in two distal site models; i.v. implanted P388 or s.c. implanted M109 in which Compound (1) was given by i.v. injection.

Series [3] can be described thus: In vivo antitumor activity, i.v. implanted P388 mouse leukemia (distal site). The settings on record: mouse, in vivo, iv; P388 i.v.; qd 1-5, i.v.; read-out: maximum tolerated dose (MTD). The protocol:
as §1, §2

Series [4] concerns P388 mouse leukemia. The series is described as above. The protocol:
as §1, §2

A further series concerns M109 mouse lung tumors. The experiment in a line: In vivo antitumor activity, s.c. implanted M109 mouse lung tumor (distal site). The procedure: as §1, §2

As for `C=C1C(O)CC(=O)C(C)C=C(C)CC(O)C2(O)OC(CCC2O)CC2CCC(O2)C(CCCC)OC(=O)C(C)C(O)C2OC12` (stereo not shown) [Compound (1), caribenolide I], the “cytotoxicity in vitro (in words)” value in series [1] was “potent cytotoxicity”. The same compound gave a half-maximal inhibitory concentration (IC50) in series [1] (human colon carcinoma HCT 116, XTT, 72 hrs) of 1.6 nM. In addition, in the series on P388 mouse leukemia [2] (P388 i.p., qd 1-5, i.p.), the “optimal dose (OD)” value is 0.03 mg/kg/inj and 0.030 mg/kg/inj. The “MST, % T/C (median survival time treated vs control)” value in the series on P388 mouse leukemia [2] (ip, 0.03 mg/kg) is recorded as 150%; in the series on P388 mouse leukemia [4] (iv, 0.064 mg/kg), 107%; in the series with M109 mouse lung tumors (0.060/0.120 mg/kg/inj, qd 4-8, i.v.) it was 128%. The increase in lifespan with P388 mouse leukemia [2] (ip, 0.03 mg/kg) came out at 50%. Also, the MTD in series [3] was found to be 0.064 mg/kg. The “increase in life span (in words)” value in the series on P388 mouse leukemia [4] (P388 i.v., doses up to MTD 0.064 mg/kg/inj, i.v.) is listed as “did not increase the life span”. Moreover, the “T-C (tumor growth delay)” value in the series with M109 mouse lung tumors (0.060/0.120 mg/kg/inj, qd 4-8, i.v., time to 1 g size) came out at 1.3 days. In the series with M109 mouse lung tumors (i.v. dosing), the “distal site activity (in words)” value was “no meaningful distal site activity”. In addition, the “OD, first printed value” in the series on M109 mouse lung tumors (qd 4-8, i.v.) is reported as 0.060 mg/kg/inj. Moreover, the “OD, second printed value” in the series with M109 mouse lung tumors (qd 4-8, i.v.) was found to be 0.120 mg/kg/inj.

As usually defined, the IC50 is the concentration needed to halve the response being measured. A lower IC50 goes with inhibition by little substance. One may read the MTD as the largest dose that counted as tolerated.
